# According to patent publication US10617664B2, “Brain derived PPARα ligands” (Rush University Medical Center, priority 2015, dated 2020):
# Tests used:
# Format in all cases: cell-based, mouse
# [1] = test system: PPRE-driven luciferase activity; assay: PPRE-luciferase assay in Pparb-null astrocytes with PPARγ antagonist GW9662; settings: Pparb-null astrocytes
# Experimental: FIG. 16A) Pparb-null primary astrocytes plated at 60-70% confluence in 12-well plates were transfected with 0.25 μg of tkPPREx3-Luc (a PPRE-dependent luciferase reporter construct). Twenty-four hours after transfection, cells were treated with different concentrations of GW9662 for 30 min followed by stimulation with rosiglitazone. After 4 h, luciferase activities were assayed. […] After transfection, cells were also treated with GW9662 followed by stimulation with OCT (FIG. 16B), HEX (FIG. 16C) and HMB (FIG. 16D).
# These astrocytes were pre-treated with PPARγ-antagonist GW9662 to nullify the involvement of PPARγ in reporter assay.
# [2] = test system: PPRE-driven luciferase activity; assay: PPRE-luciferase assay in Ppara-null astrocytes transduced with Ppara constructs; settings: Ppara-null astrocytes (empty vector)
# Experimental: Astrocytes plated at 60-70% confluence were transfected with tk-PPREx3-Luc, a PPRE-dependent luciferase reporter construct. After 24 h of transfection, cells were treated with different concentrations of HEX (FIG. 10A), OCT (FIG. 10B) and HMB (FIG. 10C) for 4 h followed by monitoring luciferase activity. Under similar experimental condition, MTT was performed to understand the effect of these ligands on cell viability (FIG. 10D, HEX; FIG. 10E, OCT; FIG. 10F, HMB). Results are mean±SD of three independent experiments. ^ap<0.001 vs. control. Ppara-null astrocytes were transduced with lentivirions containing empty vector (FIG. 10G), FL-Ppara (FIG. 10H), Y314D-Ppara (FIG. 10I), Y464D-Ppara (FIG. 10J), and Y314D/Y464D-Ppara (FIG. 10K) for 48 h followed by transfection with tk-PPREx3-Luc. After 24 h of transfection, cells were treated with different doses of HEX, OCT and HMB for 4 h followed by monitoring luciferase activity. PPRE luciferase activity was assayed in Ppara-null astrocytes transduced with lentivirions containing empty vector (FIG. 10L), FL-Ppara (FIG. 10M), Y314D-Ppara (FIG. 10N), Y464D-Ppara (FIG. 10O), and Y314D/Y464D-Ppara (FIG. 10P) after treatment with different doses of WY14643, fenofibrate, and clofibrate. PPRE luciferase activity was assayed in primary hippocampal neurons transduced with lentivirions containing empty vector (FIG. 10Q), FL-Ppara (FIG. 10R), Y314D-Ppara (FIG. 10S), Y464D-Ppara (FIG. 10T), and Y314D/Y464D-Ppara (FIG. 10U) after treatment with different doses of HEX, OCT and HMB. Results are mean±SD of three independent experiments. ^ap<0.001 vs. control.
# [3] = test system: Ppara-null hippocampal neurons; assay: Dendritic spine density (phalloidin) in transduced Ppara-null hippocampal neurons; settings: lenti-FL-Ppara
# Experimental: Ppara-null hippocampal neurons were transduced with lentivirions containing GFP (vector), FL-Ppara, and Y464D-Ppara for 48 h followed by treatment with vehicle (DMSO) (FIG. 11A), OCT (FIG. 11B), HEX (FIG. 11C), HMB (FIG. 11D), and WY14643 (FIG. 11E) for 24 h. Then neurons were stained for phalloidin to measure spine density. FIG. 11F) A representative picture of dendrite with spines (Cyan color) used for counting area of spine heads. Area of spine heads (FIG. 11G) and number of spines (FIG. 11H) in 10 μm of dendrites. Results are mean±SEM of 5 neurons per group. ^ap<0.05 vs vector only; ^bp<0.05 vs FL-Ppara. AMPA-driven calcium influx was measured in OCT (red), HEX (green) and HMB (purple)-treated Ppara-null hippocampal neurons transduced with lentivirions containing FL-Ppara (FIG. 11I), Y314D-Ppara (FIG. 11J), Y464D-Ppara (FIG. 11K), and Y314D/Y464D-Ppara (FIG. 11L). All neurons were treated with 50 μM of NMDA receptor antagonist N20C to inhibit passive calcium flow through NMDA receptor. (FIG. 11M-P) Similarly NMDA-driven calcium influx was measured in the lentivius-infected Ppara-null hippocampal neurons in the presence of different endogenous ligands. In these cases, Naspm-HCl was treated to stop the passive flow of calcium currents through AMPA receptor. Results are mean of three independent experiments.
# Dendritic spines are the crucial mediators of synaptic transmission among central neurons and often serve as a primary candidate for the long term morphological substrates of neuronal plasticity^12,13. Therefore, the effect of these ligands on the increase of spine density in cultured hippocampal neurons was studied. Briefly, mouse Ppara-null hippocampal neurons were transduced with lentivirus containing empty vector, FL-Ppara, or Y464D-Ppara for a week followed by the treatment with OCT, HEX, and HMB for four more days. After that, neurons were labelled with phalloidin to monitor the spine density. […] This observation was further validated by measuring the area of spine heads (FIG. 11F-G) and number of spines (FIG. 11H) in HEX, OCT, and HMB-treated Ppara-null neurons. HEX (FIG. 17G-H), OCT (FIG. 17I-J) and HMB (FIG. 17K-L) stimulated the expression of CREB in Ppara-null hippocampal neurons that were transduced with lentivirons containing the FL-Ppara gene.
# Hippocampal regions were dissected from 18-day-old embryonic fetus as described elsewhere (PMID: 25007337), combined and plated in poly-D-lysine coated plate for another 2-3 weeks for branching. After that, these neurons were transduced with GFP-containing lentivirions for 2 d. Neurons were stained with Dylight-554-conjugated phalloidin (Cat #21834; Thermofisher) as per manufactures protocol and visualized in fluorescence microscope. […]
SMILES,effect on rosiglitazone-mediated increase in PPRE-luciferase activity [1],PPRE-driven luciferase activity [2],density of spines [3]
"O=C(Nc1ccccc1)c1cc([N+](=O)[O-])ccc1Cl [GW9662, reference compound]",Inhibition,–,–
"Cc1cccc(Nc2cc(Cl)nc(SCC(=O)O)n2)c1C [WY14643, reference compound]",–,unable to induce,stimulated
